{"source": "patent US20220339100A1", "about": "“THERMOSENSITIVE MODIFIED CHITIN HYDROGEL LOCAL ANESTHETIC-LOADED SUSTAINED-RELEASE ANALGESIA SYSTEM, PREPARATION METHOD AND USE” (Wuhan University, priority 2021, published 2022)", "key": {"[1]": {"test": "in-vitro cumulative drug release in PBS (dialysis bag, UV 263 nm)", "type": "physicochemical", "conditions": "within 6 hours, 37° C., 100 rpm, same drug content as 2.0% system", "description": "1 ml of the above dispersion (suspension) was sucked with a precision syringe at 4° C. and put into a dialysis bag (molecular weight cut off: 8000-14000 Da), then the dialysis bag was put into a centrifuge tube which was equipped with 30 ml of PBS solution and placed in a 37° C. constant-temperature water-bath shaker that was vibrated at 100 rpm, samples were taken at different time. 2 ml of PBS solution was taken every time to be used as a sample supplemented with 2 mL of fresh PBS solution, the taken sample was analyzed by ultraviolet-visible spectrophotometry, the PBS solution was used as blank control, and a wavelength was detected as 263 nm. According to a standard curve of ropivacaine, the drug concentration of ropivacaine was calculated and a cumulative release curve was plotted. Three samples in each group were set for repetition. FIG. 1 is an in-vitro cumulative release curve of 2.0% R-HPCH-HA hydrogel sustained-release system represented by a 2.0% ropivacaine hydrochloride-loaded, wherein pure drugs (R) with the same drug content and an HPCH carrier (no hyaluronic acid, R-HPCH group) alone with the same drug content are used as control group. […] Thus, the injectable hydrogel drug delivery system comprising auxiliary component hyaluronic acid is benefit to the long-lasting local analgesia."}, "[2]": {"system": "human neuroblastoma cell lines (SH-SY5Y)", "type": "cell-based", "conditions": "24 h, 5 mM", "description": "An in-vitro cytotoxicity test was performed on a ropivacaine-containing drug-loaded sustained-release system by using neuroblastoma cell line (SH-SY5Y) cells. Ropivacaine hydrochloride was dissolved into a PBS buffer to prepare a 10 mM ropivacaine solution, and the ropivacaine solution was diluted with a cell culture medium to prepare a cell culture medium with a concentration gradient of 0.5-5 mM in ropivacaine group; cell culture medium solutions containing HPCH2% and HA0.5% as well as a ropivacaine concentration of 10 mM were prepared at a low temperature and gelled at 37° C., and then a cell culture medium containing corresponding gel sustained-release systems and a ropivacaine concentration of 10 mM was prepared. SH-SY5Y cells were inoculated in a 96 well plate at a 10^4/mL cell density and normally cultured in a constant-temperature incubator for 24 h. Then, the above cell culture mediums containing pure drugs and drug gels were respectively added to be cultured for 24 h. The relative living cell numbers were tested by a Cell Counting Kit 8 (CCK-8) assay (FIG. 2)."}, "sciatic nerve of SD rats": {"system": "sciatic nerve of SD rats", "test": "ultrasound-guided sciatic nerve block model, sensory block by hot plate method", "type": "in vivo, rat", "conditions": "0.5 mL around sciatic nerve", "description": "In order to evaluate the in-vivo analgesic effect of the drug-loaded sustained-release system, an ultrasound-guided sciatic nerve block model was used. Various sustained-release injection formulations containing ropivacaine were injected around the sciatic nerve of the right hind limb of SD rats under the guidance of ultrasound, and the nerve blocking effect was observed. The rats were anesthetized with 2% isoflurane and placed in a prone position. […] Then, the sensory and motor block of the right hind limbs of the rats were evaluated by a hot plate method and motor block 4-point method, respectively. […]\nOperation with hot plate method: the rats were placed on a preheated metal surface (55±0.5° C.), which was surrounded by a cylindrical Plexiglas wall (20 cm high and 28 cm in diameter) to limit the movement of the rats. […] This time was recorded as the basic thermal latency (baseline) time of rats (tested 2 days before the beginning of the experiment), which was generally about 3-5 s, and the rats with too short or too long baseline time were excluded. In order to prevent tissue injury, if the rats still have no pain response after 20 s, the rats were taken out and the time was recorded as 20 s. […] The test data were expressed as percentage of maximum possible effect (MPE %) with the calculation formula as follows: […]"}}, "note": "Counter-ions that a name gives are not always drawn."}
{"molecule": "CCCN1CCCC[C@H]1C(=O)Nc1c(C)cccc1C", "note": "[ropivacaine, ropivacaine hydrochloride]", "values": [{"measurement": "cumulative release rate of ropivacaine", "setting": "[1]", "value": "exceeds 80%"}, {"measurement": "cell viability", "setting": "[2]", "value": 37.2, "unit": "%"}, {"measurement": "time after which MPE value came back to the normal baseline", "setting": "sciatic nerve of SD rats", "value": 6, "unit": "h"}]}
